Test results: patent US20250268844A1, “ANTICANCER AGENTS BASED ON CYCLOPENTENONES” (UNIVERSITY OF CRETE, priority 2022, published 2025)

Legend:
[1] = system: VM-CUB-1 bladder cancer cells; assay: MTT conversion assay, VM-CUB-1; format: cell-based, human; conditions: Homo sapiens, 48 hrs treatment
Experimental: (§1) In particular, Enone-1 and Enone-2 were tested for cytotoxic activity in 17 cell lines representing a broad spectrum of human tumors. They include human colorectal carcinoma (Caco2, RKO, HCT15, HT29), liver (HepG2), lung (A549), ovarian carcinoma (A2780, 2780CP, AGE60, SKOV3), anaplastic large cell lymphoma (Mac1 and Mac2a), breast carcinoma (MDA-MB-231), cervical (HeLa), bladder cancer (VM-CUB-1), melanoma (BRO), and multiple myeloma (MR20).
(§2) Each assay was performed in triplicate and repeated in 2-3 independent experiments. Specifically, to measure cell survival, 20 μl of 10 mg/ml MTT (3-([…])-2,5-diphenyl tetrazolium bromide; Sigma) was added to each well and the plates were incubated at 37° C. in 5% CO2 for 3 hours. The supernatant was removed and the formed crystals were dissolved in 200 μl dimethyl sulphoxide. The plates were then analysed at 450 nm on a plate reader. Growth inhibition (reduction in survival) was calculated by expressing the differences in optical densities between treatment wells and control wells as a percentage of the control.

[2] = system: A549 lung cells; assay: MTT conversion assay, A549; format: cell-based, human; conditions: Homo sapiens, 48 hrs treatment
Experimental: as §1, §2

[3] = system: CDC6; assay: CDC6 protein (immunoblot) and RNA (RT-qPCR) levels in A2780 cells; format: cell-based, human; conditions: 2.5 μM for 6 or 14 hours
Experimental: FIG. 4. Effects of Enone-2 on cell cycle and on the expression levels of replication licensing factors (RLF). (A) Representative cell cycle profiles showing progressive accumulation of A2780 ovarian carcinoma cells in the G2/M phase of the cell cycle following 24 hour treatment with 2.5 or 5 μM Enone-2. Quantification of results is shown in the form of pie charts on the right. PI: propidium iodide. (B) & (C) A2780 cells were treated with 2.5 μM Enone-2 for 6 or 14 hours and analyzed for CDC6 protein levels by immunoblot (B), or RNA levels by reverse transcription qPCR (C). The RNA levels of the RLF CDT1 were also measured by qPCR (C). ***P<0.001; **P<0.01.
Replication licensing factors (RLF) such as CDC6, MCM2-MCM7, ORC and CDT1 form origins of DNA replication in the G1 phase of the cell cycle and initiate DNA replication during the S phase. CDC6 is also involved in S-M checkpoint mechanisms that ensure that the entire genome is replicated just once per cell division. Cancer cells frequently display deregulated expression of RLFs; for example, CDC6 is over-expressed in colorectal and ovarian carcinoma and is associated with poor patient prognosis. […] Because of these characteristics, RLFs are considered as novel targets for anti-cancer therapy. […]

[4] = system: MB49 mouse bladder carcinoma cells; assay: MTT assay, MB49; format: cell-based; conditions: 48 hrs
Experimental: FIG. 5: Effects of enone compounds on mouse tumor growth.
as §2
First, the impact of Enone-1 and Enone-2 on the survival of MB49 cells was verified by MTT assays performed as described in FIG. 1.

[5] = system: mdm2, p21, bax and bbc3/puma; assay: RT-qPCR of p53 target genes in A2780 cells; format: cell-based, human; conditions: 2.5 μM
Experimental: FIG. 8: Enones induce the p53 pathway. […] Cell lysates were analyzed for p53 and GAPDH (loading control). (B) A2780 cells were cultured in the presence or absence of 2.5 μM for the indicated time points before being analyzed for p53 and GAPDH levels. (C) Treatment of A2780 cells with 2.5 μM Enone-2 results in the up-regulation of p53-regulated genes (*p<0.05; **p<0.01; ***p<0.001, n=4). (D) Induction of p53 accumulation in AGE60 ovarian carcinoma cells following 6 or 14 hr exposure to 2.5 μM Enone-2. (E) Enone-1 induces the p53 pathway in A2780 cells which were cultured in the presence of 2.5 μM of the drug and analyzed as in (B). (F) Treatment of A2780 cells with 2.5 μM Enone-2 results in the up-regulation of p53-regulated genes (*p<0.05; **p<0.01; ***p<0.001, n=3).
The effects of Enone-2 on p53 and p53-dependent transcription of cell cycle and cell death-associated genes was confirmed by immunoblotting for p53 and by reverse transcription qPCR (RT-qPCR) for mdm2, p21, bax and bbc3/puma, established p53 target genes.

[6] = system: MB49 mouse bladder carcinoma tumors; assay: Subcutaneous MB49 tumor growth in C57BL/6 mice; format: in vivo; conditions: C57BL/6 female mice; 5 mg/kg intratumorally on days 7, 10, 14 and 20; vs saline
Experimental: The in vivo anti-tumor effect of Enones was determined by xenotransplantation of MB49 mouse bladder carcinoma cells in syngeneic, immunocompetent C57BL/6 female mice.
On this basis, the in vivo anti-tumor activity of Enone-2 was tested. Female mice were transplanted subcutaneously with 10^6 MB49 cells which formed tumors of approx. 40-60 mm^2 size by day 7. Mice were randomly separated in 2 groups of 5 animals each and injected intratumorally with 50 μl Enone-2 to achieve 5 mg/kg drug dose on days 7, 10, 14 and 20. The tumor size was monitored using a digital caliper and expressed in mm^2 by multiplying the length (the longest diameter) with the width (the shortest diameter perpendicular to length) of the tumor.

[7] = system: A2780 ovarian carcinoma cells; assay: Gene expression profiling (RNAseq) of A2780 cells; format: cell-based, human
Source text: FIG. 7: Schematic representation of KEGG p53 pathway-related genes and their cellular roles.
Activation of p53 occurs in response to DNA damage (so called “DNA damage response”, DDR) or ribosomal stress (RS) and conveys signals that arrest cell cycle and induce cell death.
This group entailed the following gene transcripts: ZFAND2A; KCTD10; MDM2; PLK2; DDIT3; DNAJB9; PSMD6; RYBP; PSMD10; SPSB3; PSMB8; PELI1; RNF103; DNAJB2; UBE2H; ATXN3; PSEN1; RCHY1; UBR1; ANAPC16; JKAMP; DDA1; PSMA6; TMUB2; TRIM72; SPOPL; UBE2J1; ARIH1; NPLOC4; CDC26; USP19; UFD1; TNFAIP1; PSMB6; DERL1; UBE2V2; SELENOS; PSMA1; UBE2.

[8] = system: SKOV3 ovarian carcinoma cells; assay: MTT conversion assay, SKOV3; format: cell-based, human; conditions: Homo sapiens, SK-OV-3, 48 hrs treatment
Experimental: as §1, §2

[9] = system: Mac1 anaplastic large cell lymphoma cells; assay: MTT conversion assay, Mac1; format: cell-based; conditions: Homo sapiens, Mac1, ALCL, 48 hrs treatment
Experimental: as §1, §2

IC50 [1]: 800 nM
IC50 [2]: 1500 nM
IC50 [4]: 600 nM
IC50 [8]: 300 nM
IC50 [9]: 1800 nM
SMILES: C[C@@]1(O)C=CC(=O)[C@H]1c1ccc(F)c2ccccc12 (stereo in doubt) [Enone-2, 5-(4-fluoronaphthalen-1-yl)-4-hydroxy-4-methylcyclopent-2-en-1-one]
CDC6 RNA and protein levels [3]: reduce the key RLF CDC6 in a time-dependent manner at both RNA and protein levels
mdm2, p21, bax and bbc3/puma mRNA (p53-dependent gene expression) [5]: time-dependent upregulation
subcutaneous tumor growth (tumor size) [6]: arrested tumor growth
transcripts of proteasome-mediated ubiquitin-dependent protein catabolic process ([7]; 2.5 μM for 6 hours, bioinformatic analysis): enrichment of up-regulated transcripts
p53 pathway activation (gene expression profiling) ([7]; 2.5 μM for 6 hrs or 14 hrs): activation of the p53 pathway
